Results: patent US6462055B2, “Alpha-methylbenzyl-containing thiourea inhibitors of herpes viruses containing a phenylenediamine group” (Wyeth, priority 1998, dated 2002)
Converted amounts (≈) assume the structure as drawn.

What was measured:
HSV-1 = assay: HSV Antiviral (ELISA) Assay in Vero cells; format: cell-based, herpes simplex virus type 1; conditions: HSV-1, Vero cells
In short: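 Viral replication was quantified by cell-fixed ELISA for HSV glycoprotein D, using a β-galactosidase reporter and fluorogenic umbelliferyl substrate, about 24 h after HSV-1 infection (MOI 0.006) of Vero cells. Compounds, at several concentrations, were added 30 min pre-infection. IC50 was derived from fluorescence relative to the compound-free signal.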

[1] = tested on: HCMV recombinant mutant virus (RV145); assay: microbe, parasite or virus in culture; format: cell-based, human cytomegalovirus; conditions: HCMV
Text: Microtiter plate assay. Ninety-six well plate cultures of human foreskin fibroblasts are infected in the presence of inhibitor compound with a HCMV recombinant mutant virus whose genome contains the prokaryotic beta-glucuronidase gene (Jefferson, R. A., S. M. Burgess, and D. Hirsh. 1986. Beta-glucuronidase from Escherichia coli as a gene fusion marker. Proc. Natl. Acad. Sci. USA 83:8447-8451) whose expression is controlled by a viral promoter. An example of such a virus is RV145 (Jones, T. R., V. P. Muzithras, and Y. Gluzman. 1991. Replacement mutagenesis of the human cytomegalovirus genome: US10 and US11 gene products are nonessential. J. Virol. 65:5860-5872). Since it is under the control of a viral promoter, beta-glucuronidase expression is an indirect indicator of growth and replication of HCMV in this assay. At 96 hours post-infection, the infected cell lysates are prepared (using 50 mM sodium phosphate [pH7.0]containing 0.1% Triton X-100 and 0.1% sarkosyl) and assayed for beta-glucuronidase activity using a substrate for the enzyme which when cleaved yields either a product which can be measured […] in a spectrophotometer or fluorescently in a microfluorimeter. Examples of such substrates are p-nitrophenyl-beta-D-glucuronide and methylumbelliferylglucuronide, respectively. The presence of an antiviral compound is indicated by the reduced expression of the HCMV genome resident beta-glucuronidase gene, compared to the absence of inhibitor. […] Data from this assay generated using varying amounts of inhibitor compound is also used to estimate the IC50 of an inhibitor compound.

VZV strain Ellen = assay: VZV Antiviral (ELISA) Assay in human foreskin fibroblast cells; format: cell-based, varicella-zoster virus
In short: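 HFF cells infected with VZV Ellen at low multiplicity (<0.1) overnight were seeded at 3.5×10^4 cells/well in DMEM with 2% FBS plus compound and incubated three days at 37° C., 5% CO2. Viral replication was read by ELISA against glycoprotein II with β-galactosidase fluorogenic readout (ex 365/em 450 nm); IC50 relative to no-compound fluorescence.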

| SMILES | IC50 (ug/ml) HSV (HSV-1) [µg/mL] | IC50 ug/ml HCMV [1] [µg/mL] | IC50 (ug/ml) VZV (VZV strain Ellen) [µg/mL] | % inhibition 10 ug/ml VZV (VZV strain Ellen) [%] |
| --- | --- | --- | --- | --- |
| COc1cc(OC)c(NC(=S)Nc2ccc(NC(=O)c3ccccc3N)cc2)cc1Cl [Example 181] | 1.5 (≈ 3.28 µM) | >10 | >10 | 60 |
| COc1cc(OC)c(NC(=S)Nc2ccc(NC(=O)c3ccccc3C(=O)O)cc2)cc1Cl [Example 184] | >50 | >50 | >10 |  |
| COc1cc(OC)c(NC(=S)Nc2ccc(NC(=O)c3cccc(F)c3F)cc2)cc1Cl [Example 186] | 0.2 (≈ 0.418 µM) | >10 | >10 | 52 |
| COc1cc(OC)c(NC(=S)Nc2ccc(NC(=O)c3cc(F)ccc3F)cc2)cc1Cl [Example 187] | 0.2 (≈ 0.418 µM) | >10 | >10 | 53 |
| COc1cc(OC)c(NC(=S)Nc2ccc(NC(=O)c3ccc(F)cc3F)cc2)cc1Cl [Example 188] | 1.2 (≈ 2.51 µM) | >10 | >10 | 22 |
| COc1cc(OC)c(NC(=S)Nc2ccc(NC(=O)c3ccccc3NC(C)=O)cc2)cc1Cl [Example 189] | 2.5 (≈ 5.01 µM) | >10 | >10 | 59 |
| COc1cc(OC)c(NC(=S)Nc2ccc(NC(=O)c3ccccc3N[S+](C)[O-])cc2)cc1Cl (stereo not drawn) [Example 191] | 8 (≈ 15.4 µM) | >10 | >10 | 22 |
| COc1cc(OC)c(NC(=S)Nc2ccc(NC(=O)c3ccc(F)c(F)c3F)cc2)cc1Cl [Example 192] | 0.5 (≈ 1.01 µM) | >10 | >10 | 14 |
| COc1cc(OC)c(NC(=S)Nc2ccc(NC(=O)c3c(F)c(F)c(F)c(F)c3F)cc2)cc1Cl [Example 193] | 1.5 (≈ 2.82 µM) | >10 | 3.8 (≈ 7.14 µM) | 106 |
| COc1cc(OC)c(NC(=S)Nc2ccc(NC(=O)c3ccccc3SC)cc2)cc1Cl [Example 194] | 1.5 (≈ 3.07 µM) | >10 | >10 | 45 |
| COc1cc(OC)c(NC(=S)Nc2ccc(NC(=O)c3cccc(C(=O)O)c3)cc2)cc1Cl [Example 209] | >50 | >50 | >10 | 22 |
| COc1cc(OC)c(NC(=S)Nc2ccc(NC(=O)c3cccc(OCc4ccccc4)c3)cc2)cc1Cl [Example 210] | 5 (≈ 9.12 µM) | >10 | >10 | 14 |
| CCCCOc1cccc(C(=O)Nc2ccc(NC(=S)Nc3cc(Cl)c(OC)cc3OC)cc2)c1 [Example 219] | 2.5 (≈ 4.86 µM) | >10 | >10 | 30 |
| COc1cc(OC)c(NC(=S)Nc2ccc(NC(=O)c3ccccc3[S+](C)[O-])cc2)cc1Cl (stereo not drawn) [Example 220] | >10 | >10 | >10 | 35 |
| CCOC(=O)COc1cccc(C(=O)Nc2ccc(NC(=S)Nc3cc(Cl)c(OC)cc3OC)cc2)c1 [Example 221] | >10 | >10 | >10 | 17 |
| COc1cc(OC)c(NC(=S)Nc2ccc(NC(=O)c3cccc(OCC(=O)O)c3)cc2)cc1Cl [Example 222] | >50 | >50 | >10 | 17 |
| Cc1ccc(NC(=S)Nc2ccc(NC(=O)c3ccccc3F)cc2)cc1Cl [Example 231] | 0.5 (≈ 1.21 µM) | >10 | >10 | 11 |

| SMILES | IC50 (ug/ml) HSV (HSV-1) [µg/mL] | IC50 ug/ml HCMV [1] [µg/mL] | IC50 (ug/ml) VZV (VZV strain Ellen) [µg/mL] | % inhibition 10 ug/ml VZV (VZV strain Ellen) [%] |
| --- | --- | --- | --- | --- |
| COc1cccc(C(=O)Nc2ccc(NC(=S)Nc3ccc(C)c(Cl)c3)cc2)c1 [Example 232] | 1 (≈ 2.35 µM) | >10 | >10 | 21 |
| Cc1ccc(NC(=S)Nc2ccc(NC(=O)c3ccccc3C)cc2)cc1Cl [Example 234] | 0.2 (≈ 0.488 µM) | 1 (≈ 2.44 µM) | >10 | 68 |
| Cc1ccc(NC(=S)Nc2ccc(NC(=O)c3c(F)cccc3F)cc2)cc1Cl [Example 235] | 0.2 (≈ 0.463 µM) | >10 | >10 | 50 |
| CN(c1ccc(NC(=S)Nc2ccc(NC(=O)c3ccccc3F)cc2)cc1Cl)C1CCCCC1 [Example 238] | >10 | >10 | >10 | 38 |
| O=C(Nc1ccc(NC(=S)Nc2ccc(Cl)c(C(F)(F)F)c2)cc1)c1ccccc1F [Example 244] | >10 | >10 | >10 | 18 |
| Cc1ccccc1C(=O)Nc1ccc(NC(=S)Nc2ccc(N(C)C3CCCCC3)c(Cl)c2)cc1 [Example 247] | >10 | >10 | 5 (≈ 9.86 µM) | 74 |
| CN(c1ccc(NC(=S)Nc2ccc(NC(=O)c3c(F)cccc3F)cc2)cc1Cl)C1CCCCC1 [Example 248] | >10 | 2 (≈ 3.78 µM) | 2 (≈ 3.78 µM) | 96 |
| COc1cccc(C(=O)Nc2ccc(NC(=S)Nc3ccc(N(C)C4CCCCC4)c(Cl)c3)cc2)c1 [Example 250] | >10 | >10 | >10 | 42 |
| COc1cc(OC)c(NC(=S)Nc2ccc(NC(=O)c3cccc(OC(C)=O)c3)cc2)cc1Cl [Example 253] | 1.2 (≈ 2.4 µM) | 8 (≈ 16 µM) | 6 (≈ 12 µM) | 100 |
| COc1cc(OC)c(NC(=S)Nc2ccc(NC(=O)c3cccc(O)c3)cc2)cc1Cl [Example 254] | 0.9 (≈ 1.97 µM) | 4 (≈ 8.73 µM) | 4 (≈ 8.73 µM) | 110 |
| COc1cc(OC)c(NC(=S)Nc2ccc(NC(=O)c3cccc4c3OCO4)cc2)cc1Cl [Example 255] | 1.2 (≈ 2.47 µM) | >10 | >10 | 0 |
| COc1cc(OC)c(NC(=S)Nc2ccc(NC(=O)c3cccc(OC(F)(F)F)c3)cc2)cc1Cl [Example 256] | 2 (≈ 3.8 µM) | 9 (≈ 17.1 µM) | >10 | 15 |
| COc1cc(OC)c(NC(=S)Nc2ccc(NC(=O)c3cccc(OCCN(C)C)c3)cc2)cc1Cl [Example 257] | 2.5 (≈ 4.73 µM) | 7 (≈ 13.2 µM) | 2.5 (≈ 4.73 µM) | 105 |
| COc1cc(OC)c(NC(=S)Nc2ccc(NC(=O)c3cccc(OCCN4CCOCC4)c3)cc2)cc1Cl [Example 258] | 1.5 (≈ 2.63 µM) | 5 (≈ 8.76 µM) | 1.5 (≈ 2.63 µM) | 92 |
| COc1cc(OC)c(NC(=S)Nc2ccc(NC(=O)c3ccccc3F)c(Cl)c2)cc1Cl [Example 278] | >10 | >10 | >10 | 15 |
| COc1cc(OC)c(NC(=S)Nc2ccc(NC(=O)c3ccccc3F)c(C(=O)c3ccccc3)c2)cc1Cl [Example 293] | >50 | >10 | >10 | 2 |
| CN1CCC(N(C)c2ccc(NC(=S)Nc3ccc(NC(=O)c4ccccc4F)cc3)cc2Cl)C1 (stereo not drawn) [Example 332] | 1 (≈ 1.95 µM) | 0.9 (≈ 1.76 µM) | 8 (≈ 15.6 µM) | 90 |
